Results from US8163909B2, “Substituted hydroxyethyl amine compounds as beta-secretase modulators and methods of use” (Amgen Inc., priority 2007, dated 2012).
Like-named read-outs stand apart in the source and are kept apart here.

Columns and labels:
CYP2D6 = CYP2D6 (Homo sapiens, UniProt P10635); test: CYP2D6 inhibition assay (bufuralol, pooled human liver microsomes)
[1] = molecular target: Beta Secretase enzyme (BACE) (Homo sapiens, UniProt P56817); test: In vitro enzymatic BACE FRET (fluorescence resonance energy transfer) assay; type: biochemical;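 further: fluorescence read after 1 h with 50 nM quenched peptide substrate spanning the BACE cleavage site, in pH 4.2 acetate buffer containing 10% DMSO and nonionic detergent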
CYP3A4 (CYP3A) = CYP3A4 (CYP3A) (Homo sapiens, UniProt P08684); test: in vitro; settings: microsomes, pH 7.4;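 further: inhibition of CYP3A-mediated 1-hydroxymidazolam formation after 10 min incubation with NADPH, quantified by HPLC MS relative to metabolite produced without test compound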
[2] = Microsomal stability assay, human liver microsomes;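 further: pooled human liver microsomes at 0.25 mg/mL with 1 µM compound and NADPH at 37 °C, pH 7.4, for 30 min, unchanged parent quantified by LC-MS/MS against the 0 min sample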
[3] = tested on: Aβ40 in conditioned medium of cells stably expressing Amyloid Precursor Protein (APP); test: In vitro BACE cell-based assay (Aβ40 in conditioned medium, sandwich ELISA); settings: Homo sapiens;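 further: compounds added as a dilution series, secreted peptide quantified by europium time-resolved fluorescence readout, potency fitted from percent of control versus compound concentration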
[4] = Microsomal stability assay, rat liver microsomes;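 further: rat liver microsomes (0.25 mg/mL) with about 1 µM compound plus 1 mM NADPH, pH 7.4, 37 °C for 30 min, parent left measured by LC-MS/MS against 0 min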
[5] = 2D6 IC50, CYP enzyme inhibition
[6] = BACE enzyme assay, IC50's in uM, read-out: BACE1 FRET assay
[7] = HEK293, cell-based assay, HEK cells, IC50's in uM, read-out: HEK cell assay
[8] = Table 2, read-out: BACE1 FRET assay
[9] = HEK293, Table 2, HEK cells, read-out: HEK cell assay
[10] = 2D6 IC50 (uM), CYP2D6 inhibition
[11] = BACE enzyme assay IC50, read-out: BACE1 FRET assay
[12] = HEK293, HEK cell-based assay IC50, read-out: HEK cell assay
[13] = 2D6 IC50 (uM), CYP enzyme inhibition
[14] = BACE enzyme assay, read-out: BACE1 FRET assay
[15] = HEK293, HEK cells, read-out: HEK cell assay
[16] = read-out: BACE1 FRET assay (IC50)
[17] = HEK293, HEK cells, read-out: HEK cell assay (IC50)
[18] = HEK293, HEK cell-based assay, IC50's in uM, read-out: HEK cell assay

CYP2D6, sequence (P10635 whole entry): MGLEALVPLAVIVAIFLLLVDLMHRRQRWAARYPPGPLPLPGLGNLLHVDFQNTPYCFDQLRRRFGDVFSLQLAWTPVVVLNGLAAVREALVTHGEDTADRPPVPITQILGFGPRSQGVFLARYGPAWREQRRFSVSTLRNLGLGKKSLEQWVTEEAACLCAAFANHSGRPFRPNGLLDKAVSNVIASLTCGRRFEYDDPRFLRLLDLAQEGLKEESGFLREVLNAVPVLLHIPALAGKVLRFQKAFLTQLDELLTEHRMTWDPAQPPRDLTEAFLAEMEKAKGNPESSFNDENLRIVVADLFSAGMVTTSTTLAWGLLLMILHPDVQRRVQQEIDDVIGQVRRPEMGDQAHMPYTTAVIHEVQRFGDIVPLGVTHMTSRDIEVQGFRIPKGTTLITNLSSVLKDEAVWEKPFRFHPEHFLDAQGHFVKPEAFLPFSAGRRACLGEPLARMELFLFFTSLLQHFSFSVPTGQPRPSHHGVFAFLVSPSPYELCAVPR
CYP3A4 (CYP3A), sequence (P08684 2-503): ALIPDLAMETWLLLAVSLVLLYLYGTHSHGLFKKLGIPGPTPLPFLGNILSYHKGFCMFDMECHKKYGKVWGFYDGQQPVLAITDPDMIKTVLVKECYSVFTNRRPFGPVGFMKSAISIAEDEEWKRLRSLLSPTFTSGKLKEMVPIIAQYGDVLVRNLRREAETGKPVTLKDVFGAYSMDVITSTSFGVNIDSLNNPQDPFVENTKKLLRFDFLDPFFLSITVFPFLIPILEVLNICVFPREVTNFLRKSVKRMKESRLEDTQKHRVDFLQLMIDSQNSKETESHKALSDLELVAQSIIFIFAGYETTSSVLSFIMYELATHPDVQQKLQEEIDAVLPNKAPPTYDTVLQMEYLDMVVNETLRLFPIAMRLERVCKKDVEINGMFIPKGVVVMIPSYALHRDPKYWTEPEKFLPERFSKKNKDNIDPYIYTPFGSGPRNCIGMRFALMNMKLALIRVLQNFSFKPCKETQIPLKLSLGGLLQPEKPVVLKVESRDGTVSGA
Beta Secretase enzyme (BACE), sequence (P56817 46-501): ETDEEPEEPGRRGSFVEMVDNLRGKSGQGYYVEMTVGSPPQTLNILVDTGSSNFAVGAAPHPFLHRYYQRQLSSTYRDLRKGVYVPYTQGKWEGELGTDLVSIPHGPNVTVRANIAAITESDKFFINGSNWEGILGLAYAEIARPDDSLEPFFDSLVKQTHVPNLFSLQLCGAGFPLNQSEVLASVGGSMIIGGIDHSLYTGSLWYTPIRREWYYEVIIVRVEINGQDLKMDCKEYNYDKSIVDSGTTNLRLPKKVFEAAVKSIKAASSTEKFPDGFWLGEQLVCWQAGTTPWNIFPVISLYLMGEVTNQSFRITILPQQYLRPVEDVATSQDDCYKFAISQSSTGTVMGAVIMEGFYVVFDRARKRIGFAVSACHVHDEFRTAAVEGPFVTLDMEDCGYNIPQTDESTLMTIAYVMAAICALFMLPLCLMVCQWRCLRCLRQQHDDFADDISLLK

Row | Structure (SMILES) | IC50 (CYP2D6; [5]) [µM] | IC50 (CYP3A4 (CYP3A)) [nM] | HLM ([2]; human liver microsomal data) [µL/min/mg] | RLM ([4]; rat liver microsomal data) [µL/min/mg] | HLM ([2]; human liver microsomes) [µL/min/mg] | RLM ([4]; rat liver microsomes) [µL/min/mg] | further results
1 | COCC(=O)N[C@@H](Cc1cc(F)cc(-c2nccs2)c1)[C@H](O)CN[C@@]1(C)CC2(CCC2)Oc2ncc(CC(C)(C)C)cc21 [compound 866] | 0.9 | 200 | 84 | 90 |  |  | IC50 [1, 6]: 0.177 µM; IC50 [3, 7]: 0.88 µM
2 | CO[C@H](C)C(=O)N[C@@H](Cc1cc(F)cc(F)c1)[C@H](O)CN[C@H]1CC2(CCC2)Oc2c(-c3nccs3)cc(CC(C)C)cc21 [compound 459] | 10.2 | 400 | 399 | 399 |  |  | IC50 [1, 8]: 0.004 µM; IC50 [3, 9]: 0.046 µM
3 | COCC(=O)N[C@@H](Cc1cc(F)cc(-c2nccs2)c1)[C@H](O)CN[C@H]1CC2(CCC2)Oc2ncc(C3CC3)cc21 [compound 749] |  | 300 |  |  | 59 | 51 | IC50 (CYP2D6; [10]): 1.6 µM; IC50 [1, 11]: 0.046 µM; IC50 [3, 12]: 0.074 µM
4 | CC(=O)N[C@@H](Cc1ccc2c(c1)OCO2)[C@H](O)CN[C@H]1CC2(CCC2)Oc2ncc(C(F)(F)C(C)(C)C)cc21 [compound 574] |  | 200 | 46 | 146 |  |  | IC50 (CYP2D6; [13]): 3.5 µM; IC50 [1, 14]: 0.22 µM; IC50 [3, 15]: 0.606 µM
5 | CCC(=O)N[C@@H](Cc1cc(F)cc(-c2nccs2)c1)[C@H](O)CN[C@H]1CC2(CCC2)Oc2ncc(CC(C)(C)C)cc21 [compound 860] | 0.3 | 200 | 62 | 69 |  |  | IC50 [1, 6]: 0.004 µM; IC50 [3, 7]: 0.015 µM
6 | CO[C@H](C)C(=O)N[C@@H](Cc1ccc2c(c1)OCO2)[C@H](O)CN[C@H]1CC2(CCC2)Oc2nc3c(cc21)[C@H](C(C)C)CO3 [compound 665] |  | 200 |  |  | 61 | 126 | IC50 (CYP2D6; 2D6 IC50, CYP2D6 inhibition): 4 µM; IC50 [1, 16]: 0.927 µM; IC50 [3, 17]: 0.249 µM
7 | COCC(=O)N[C@@H](Cc1cccc(F)c1)[C@H](O)CN[C@H]1CC2(CCC2)Oc2c(-c3ccncc3F)cc(CC(C)(C)C)cc21 [compound 668] |  | 100 |  |  | 118 | 197 | IC50 (CYP2D6; 2D6 IC50, CYP2D6 inhibition): 2.9 µM; IC50 [1, 16]: 0.004 µM; IC50 [3, 17]: 0.018 µM
8 | C#Cc1cc(F)cc(C[C@H](NC(C)=O)[C@H](O)CN[C@H]2CC3(CCC3)Oc3ncc(CC(C)(C)C)cc32)c1 [compound 713, N-((1S,2R)-3-(((4′S)-6′-(2,2-dimethylpropyl)-3′,4′-dihydrospiro[cyclobutane-1,2′-pyrano[2,3-b]pyridin]-4′-yl)amino)-1-(3-ethynyl-5-fluorobenzyl)-2-hydroxypropyl)acetamide] |  | 100 |  |  | 75 | 58 | IC50 (CYP2D6; [10]): 1.2 µM; IC50 [1, 11]: 0.003 µM; IC50 [3, 12]: 0.015 µM
9 | CC(=O)CC(=O)N[C@@H](Cc1cccc(F)c1)[C@H](O)CN[C@H]1CC2(CCC2)Oc2ncc(CC(C)(C)C)cc21 [compound 466] | 8.9 | 1200 | 296 | 165 |  |  | IC50 [1, 8]: 0.004 µM; IC50 [3, 9]: 0.008 µM
10 | CO[C@H](C)C(=O)N[C@@H](Cc1cc(-c2nccs2)ccc1F)[C@H](O)CN[C@H]1CC2(CCC2)Oc2ncc(CC(C)(C)C)cc21 [compound 898] | 1 | 100 | 67 | 121 |  |  | IC50 [1, 6]: 0.01 µM; IC50 [3, 7]: 0.014 µM
11 | COCC(=O)N[C@@H](Cc1ccc2c(c1)OCO2)[C@H](O)CN[C@H]1CC2(CCC2)Oc2cnc(CC(C)C)cc21 [compound 664] |  | ≤ 30 |  |  | 193 | 276 | IC50 (CYP2D6; 2D6 IC50, CYP2D6 inhibition): 2.3 µM; IC50 [1, 16]: 0.118 µM; IC50 [3, 17]: 0.192 µM
12 | COCC(=O)N[C@@H](Cc1cccc(F)c1)[C@H](O)CN[C@H]1CC2(CCC2)Oc2c(-c3ccnc(OC)c3)cc(CC(C)(C)C)cc21 [compound 654] |  | 1000 |  |  | 399 | 477 | IC50 (CYP2D6; 2D6 IC50, CYP2D6 inhibition): 9.9 µM; IC50 [1, 16]: 0.006 µM; IC50 [3, 17]: 0.034 µM
13 | CO[C@H](C)C(=O)N[C@@H](Cc1ccc(F)c(F)c1)[C@H](O)CN[C@H]1CC(C)(C)Oc2ncc(CC(C)(C)C)cc21 [compound 675] |  | 2000 |  |  | 543 | 411 | IC50 (CYP2D6; [10]): 21.8 µM; IC50 [1, 11]: 0.009 µM; IC50 [3, 12]: 0.013 µM
14 | COCC(=O)N[C@@H](Cc1cc(F)cc(F)c1)[C@H](O)CN[C@H]1CC2(CCC2)Oc2c(-c3nccs3)cc(CC(C)(C)C)cc21 [compound 463] | 7.2 | 1100 | 682 | 662 |  |  | IC50 [1, 8]: 0.003 µM; IC50 [3, 9]: 0.048 µM
15 | CC(=O)N[C@@H](Cc1cc(F)cc(-c2ccncc2)c1)[C@H](O)CN[C@H]1CC2(CCC2)Oc2ncc(CC(C)(C)C)cc21 [compound 614] |  | 160 |  |  | 244 | 107 | IC50 (CYP2D6; 2D6 IC50, CYP2D6 inhibition): 0.4 µM; IC50 [1, 16]: 0.012 µM; IC50 [3, 17]: 0.008 µM
16 | COCC(=O)N[C@@H](Cc1cc(F)cc(-c2nccs2)c1)[C@H](O)CN[C@H]1CC2(CCC2)Oc2ncc([C@@H]3CC3(C)C)cc21 [Example 773, N-((1S,2R)-3-(((4′S)-6′-((1R)-2,2-dimethylcyclopropyl)-3′,4′-dihydrospiro[cyclobutane-1,2′-pyrano[2,3-b]pyridin]-4′-yl)amino)-1-(3-fluoro-5-(1,3-thiazol-2-yl)benzyl)-2-hydroxypropyl)-2-methoxyacetamide] |  | 300 | 62 | 67 |  |  | IC50 (CYP2D6; [13]): 0.3 µM; IC50 [1, 6]: 0.003 µM; IC50 [3, 18]: 0.006 µM
17 | C#Cc1cccc(C[C@H](NC(=O)COC)[C@H](O)CN[C@H]2CC3(CCC3)Oc3ncc(CC(C)(C)C(F)(F)F)cc32)c1 [compound 838] |  | 100 | 34 | 54 |  |  | IC50 (CYP2D6; [13]): 2 µM; IC50 [1, 6]: 0.01 µM; IC50 [3, 18]: 0.028 µM
18 | COCC(=O)N[C@@H](Cc1cccc(F)c1)[C@H](O)CN[C@H]1CC2(CCC2)Oc2c1cc([C@H](n1ccnc1)C(C)(C)C)cc2-n1ccnc1 [compound 563] |  | 100 | 40 | 40 |  |  | IC50 (CYP2D6; [13]): 0.4 µM; IC50 [1, 14]: 12 µM; IC50 [3, 15]: > 10 µM
19 | CO[C@H](C)C(=O)N[C@@H](Cc1cc(F)cc(F)c1)[C@H](O)CN[C@H]1CC2(CCC2)Oc2c(-c3cnc[nH]3)cc(CC(C)C)cc21 [compound 476] | 12.3 | 600 | 329 | 408 |  |  | IC50 [1, 8]: 0.028 µM; IC50 [3, 9]: 0.005 µM
20 | CC(C)Cc1cnc2c(c1)[C@@H](NC[C@@H](O)[C@H](Cc1ccc3c(c1)OCO3)NC(=O)[C@@H]1CCCO1)CC1(CCC1)O2 [compound 548] |  | 300 | 57 | 184 |  |  | IC50 (CYP2D6; [13]): 3.7 µM; IC50 [1, 14]: 0.074 µM; IC50 [3, 15]: 0.623 µM
21 | CC(C)(C)Cc1cnc2c(c1)[C@@H](NC[C@@H](O)[C@H](Cc1ccc(F)cc1)NC(=O)C(C)(F)F)CC1(CCC1)O2 [compound 477] | 3.2 | 300 | 118 | 337 |  |  | IC50 [1, 8]: 0.012 µM; IC50 [3, 9]: 0.104 µM
22 | COCC(=O)N[C@@H](Cc1cc(F)cc(F)c1)[C@H](O)CN[C@H]1CC2(CCC2)Oc2c(-c3cncs3)cc(CC(C)C)cc21 [compound 490] |  | 200 | 344 | 249 |  |  | IC50 (CYP2D6; [13]): 7.5 µM; IC50 [1, 14]: 0.003 µM; IC50 [3, 15]: 0.029 µM
23 | Cc1csc(CN2CCO[C@H](C(=O)N[C@@H](Cc3ccc(F)cc3)[C@H](O)CN[C@H]3CC4(CCC4)Oc4ncc(CC(C)(C)C)cc43)C2)n1 [compound 734] |  | 100 |  |  | 543 | 335 | IC50 (CYP2D6; [10]): 2.4 µM; IC50 [1, 11]: 0.012 µM; IC50 [3, 12]: 0.014 µM
24 | COCC(=O)N[C@@H](Cc1ccc(F)c(-c2cncs2)c1)[C@H](O)CN[C@H]1CC2(CCC2)Oc2ncc(CC(C)(C)C)cc21 [compound 684, N-((1S,2R)-3-(((4′S)-6′-(2,2-dimethylpropyl)-3′,4′-dihydrospiro[cyclobutane-1,2′-pyrano[2,3-b]pyridin]-4′-yl)amino)-1-(4-fluoro-3-(1,3-thiazol-5-yl)benzyl)-2-hydroxypropyl)-2-methoxyacetamide] |  | 100 |  |  | 56 | 114 | IC50 (CYP2D6; [10]): 0.2 µM; IC50 [1, 11]: 0.005 µM; IC50 [3, 12]: 0.012 µM
25 | COCC(=O)N[C@@H](Cc1cc(F)cc(F)c1)[C@H](O)CN[C@H]1CC2(CCC2)Oc2c(-c3nccs3)cc(CC(C)C)cc21 [compound 460] | 3.9 | 800 | 775 | 775 |  |  | IC50 [1, 8]: 0.001 µM; IC50 [3, 9]: 0.028 µM
